{
  "source": "patent US20150057363A1",
  "about": "“TREATMENT OF METHYLMALONIC ACIDURIA, ISOVALERIC ACIDURIA, AND OTHER ORGANIC ACIDURIAS WITH TOCOTRIENOL QUINONES” (priority 2011, published 2015)",
  "key": {"[1]": {"tested_on": "MMA fibroblasts", "assay": "MMA cell line assay: rescue of BSO-stressed fibroblasts (cell viability, Calcein AM)", "format": "cell-based", "details": "Homo sapiens, Fibroblast; fibroblasts from MMA patient stressed with 25 μM BSO; Calcein AM readout; read-out: ED50 (protection of cell viability)", "description": "Alpha-Tocotrienol quinone, its redox-silent version (the bis-Boc protected corresponding hydroquinone), and solvent controls were tested for their ability to rescue cells from MMA fibroblasts of the patient diagnosed with MMA, when the cells were stressed by addition of L-buthionine-(S,R)-sulfoximine (BSO), as described in Jauslin et al., Hum. Mol. Genet. 11(24):3055 (2002), Jauslin et al., FASEB J. 17:1972-4 (2003), and International Patent Application WO 2004/003565. EC50 concentrations of test compound and its redox-silent version were determined and compared. The following compound, 2-((6E,10E)-3-hydroxy-3,7,11,15-tetramethylhexadeca-6,10,14-trienyl)-3,5,6-trimethyl-bis(t-butyloxycarbonyl)benzene-1,4-diol, the bis-Boc protected hydroquinone form of alpha-tocotrienol quinone, was used as the “redox-silent” alpha tocotrienol quinone, or αTTQ-RS.\nDMEM (Dulbecco's Modified Eagle Medium)—No Glucose, No pyruvate—GIBCO®—Catalog number 11966-025 from Invitrogen. Fetal Calf Serum was obtained from PAA Laboratories. Basic fibroblast growth factor and epidermal growth factor were purchased from PeproTech. Penicillin-streptomycin-glutamine mix, L-buthionine (S,R)-sulfoximine, and insulin from bovine pancreas were purchased from Sigma. Calcein AM was purchased from Molecular Probes. […]"}, "[2]": {"assay": "Pharmacokinetics of alpha-tocotrienol quinone in rats", "format": "in vivo, rat", "description": "(§1) The particular dosage appropriate for a specific patient is determined by dose titration. […] This lack of dose-proportionality may be due to decreased absorption since there is no change in t1/2 over dose range. Alpha-tocotrienol quinone tested in rats was safe when given acutely up to 2000 mg/kg."}, "[3]": {"assay": "Pharmacokinetics of alpha-tocotrienol quinone in fasted dogs", "details": "dog, in vivo, po, 10 mg/kg", "description": "as §1"}, "[4]": {"tested_on": "rats", "details": "rat, in vivo", "description": "as §1\nThe starting dose can be estimated based on the United States Food and Drug Administration guidelines titled “Estimating the Maximum Safe Starting Dose in Initial Clinical Trials for Therapeutics in Adult Healthy Volunteers” (July 2005) as well as the International Conference on Harmonisation of Technical Requirements for Registration of Pharmaceuticals for Human Use (ICH) guidelines titled “Guidance on Non-clinical Safety Studies for the Conduct of Human Clinical Trials and Marketing Authorization for Pharmaceuticals” (July 2008). Per ICH guidelines, predicted exposures from the starting dose should not exceed 1/50th the NOAEL (No-Adverse-Observed-Effect-Level) in the more sensitive species on a mg/m^2 basis. Following a single oral dose of alpha-tocotrienol quinone, the NOAEL was established to be 500 mg/kg for the female rat, i.e. 3,000 mg/m2. This dosage would be equivalent to 81 mg/kg in an adult human. 1/50th of 81 mg/kg is 1.6 mg/kg, i.e. 110 mg for a 70 kg adult, or 16 mg for a 10 kg child. This dose can be administered once, twice, or three times daily."}, "[5]": {"assay": "Blood-brain barrier crossing in mice", "format": "in vivo"}},
  "data": [
    {"compound": "CC(C)=CCC/C(C)=C/CC/C(C)=C/CCC(C)(O)CCC1=C(C)C(=O)C(C)=C(C)C1=O", "note": "(stereo not drawn) [alpha-tocotrienol quinone, Alpha-tocotrienol quinone]", "values": [
      {"measurement": "EC50", "setting": "[1]", "value": 23, "unit": "nM"},
      {"measurement": "dose-proportionality of AUC", "setting": "[2]; increase in doses of 2.4: 6: 10: 20 gives increase in AUCs of 1.5: 2.8: 4.0: 6.7", "value": "less than dose-proportionality"},
      {"measurement": "bioavailability", "setting": "[2]; rat, in vivo, 10 mg/kg", "value": "~90", "unit": "%"},
      {"measurement": "bioavailability", "setting": "[3]", "value": "~16", "unit": "%"},
      {"measurement": "safe when given acutely up to", "setting": "[4]", "value": "up to 2000 mg/kg"},
      {"measurement": "NOAEL on mg/m2 basis", "setting": "[4]; po", "value": "3,000 mg/m2"},
      {"measurement": "crosses the blood-brain barrier", "setting": "[5]", "value": "crosses the blood-brain barrier"}
    ]}
  ]
}
